From patent US20170121295A1, “POLYCYCLIC LPA1 ANTAGONIST AND USES THEREOF” (AMIRA PHARMACEUTICALS, INC., priority 2010, published 2017)
Read-outs that look alike come from different tables or passages of the source. Values belong to the compound of their own block, whether it stands above or below them.

Columns and labels:
[1] = Metabolite identification in liver microsomes; assay type: in vitro ADME, rat, dog, monkey, human; conditions: 30 μM Compound 1, 60 minutes
Description: To determine the qualitative metabolic profile, 30 μM of Compound 1 was incubated aerobically with rat, dog, monkey, or human liver microsomes (1 mg/mL). The incubations were performed in phosphate buffer at pH 7.4, 37° C., with the reaction initiated by the addition of P-NADPH, GSH and/or UDPGA (1, 5 and 2 mM final concentration, respectively). The reaction was terminated by the addition of 3 times incubation volume of acetonitrile after 60 minutes. The sample was centrifuged and the supernatant was transferred, nitrogen blow dried and reconstituted in 50% acetonitrile in water for LC/MS analysis.
(§1) LC/MS/MS analysis was carried out with a Sciex API-4000Qtrap tandem mass spectrometer (Applied Biosystems/Life Technologies, Carlsbad, Calif.) interfaced to a high-performance liquid chromatography system consisting of an Agilent 1200 series pump (Foster City, Calif.) and a LEAP Technologies PAL autoinjector (Carrboro, N.C.).
(§2) Parent/metabolite analysis was conducted in the positive ion mode (ESI) by multiple reaction monitoring of parent. The mobile phases contained 10 mM ammonium acetate in water with 0.05% formic acid (solvent A) and 10 mM ammonium acetate in 50% acetonitrile/50% methanol with 0.05% formic acid (solvent B). For Compound 1, the flow rate was maintained at 1 mL/min and the total run time was 2.5 min. Analytes were separated on a YMC ODS-AQ column (2.1×150 mm; 3 μm) and eluted with a linear gradient as follows: • 1. mobile phase was held for 0.5 min at 5% B, • 2. B was increased from 5% to 95% over the next 0.2 min, • 3. B was held constant for 1.3 min at 95%, and • 4. B was returned to the initial gradient conditions.
(§3) GSH adducts were investigated in microsomes, hepatocytes and rat bile using several methods including the neutral loss of pyroglutamate (129 Da) as well as a precursor ion scans of Compound 1 (105 Da, 318 Da and 438 Da).
For metabolite quantitation, the flow rate was maintained at 0.25 mL/min and the total run time was 60 min. Analytes were separated using a linear gradient as follows: • 1. mobile phase was held for 5 min at 5% B, • 2. […]

[2] = Metabolite identification in hepatocytes; assay type: in vitro ADME, rat, dog, monkey, human; conditions: 30 μM Compound 1
Description: Rat, dog, monkey, or human hepatocytes were thawed according to the supplier's instructions. Cells were counted using the Trypan Blue method, and then diluted to 1×10^6 viable cells/ml with KB medium. Compound 1 was tested at 30 μM and incubated for up to 2 hours in rat hepatocytes and 4 hours in dog, monkey or human hepatocytes at 37° C. Reactions were terminated with addition of 3 times incubation volume of acetonitrile, centrifuged, and supernatants were transferred, nitrogen blow dried and reconstituted in 50% acetonitrile in water for LC/MS analysis.
as §1, §2, §3
For metabolite quantitation, the flow rate was maintained at 0.25 mL/min and the total run time was 60 min. Analytes were separated using a linear gradient as follows: • 1. mobile phase was held for 5 min at 5% B, • 2. B was increased from 5% to 95% over the next 45 min. • 3. […]

[3] = Metabolites generated in vivo (rat bile and urine, rat and dog plasma); conditions: Compound 2 IV 2 mg/kg, bile duct cannulated rats
Description: Compound 2 (2 mg/kg) was administered intravenously (IV) to fasted rats as a solution in 0.9% saline via a bolus injection into the jugular vein (2 mg/mL; […]).
Rats with surgically placed bile duct and jugular vein cannula were purchased from Charles River Laboratories and allowed to acclimate for 2 days. Compound 2 was intravenously dosed (2 mg/kg) to three rats as a solution in 0.9% saline (2 mg/mL; 1 mL/kg). Bile samples were collected at time-points 0-2, 2-5 and 5-8, and urine samples were collected at time-points 0-4 and 4-8 hrs post-dose in 8 mL scintillation vials and stored at −40° C. until analysis.
Concentrations of Compound 1 in rat plasma were determined by LC-MS/MS after protein precipitation. Rat plasma (100 μL) was treated with 400 μL of internal standard solution (ISTD, buspirone in acetonitrile containing 1.5% acetic acid) to precipitate proteins. Samples were vortexed and then centrifuged for 10 min at approximately 4,000 rpm (3700×g) at 4° C. (Beckman centrifuge, Brea, Calif.).
as §2
For metabolite quantitation, the flow rate was maintained at 0.25 mL/min and the total run time was 60 min. Analytes were separated using a linear gradient as follows: • 1. mobile phase was held for 5 min at 5% B, • 2. B was increased from 5% to 95% over the next 45 min. • 3. B was held constant for 5 min at 95%, and • 4. B was returned to the initial gradient conditions

[4] = Thermodynamic aqueous solubility; assay type: physicochemical; conditions: water, 25 °C, thermodynamic from solid, equilibrated at 25° C. for 24 hours, read-out: Solubility (mg/ml, free form equivalent)
Description: Aqueous solubility was determined by suspending sufficient compound in water to give a maximum final concentration of ≧10 mg·ml−1 of the parent free-form of the compound. The suspension was equilibrated at 25° C. for 24 hours then the pH was measured. The suspension was then filtered through a glass fiber C filter into a 96 well plate unless stated otherwise. The filtrate was then diluted by a factor of 101. Quantification was by HPLC with reference to a standard solution of approximately 0.25 mg·ml^−1 in DMSO. Different volumes of the standard, diluted and undiluted sample solutions were injected. The solubility was calculated using the peak areas determined by integration of the peak found at the same retention time as the principal peak in the standard injection.
Analysis was performed on an Agilent HP1100 series system equipped with a diode array detector and using ChemStation software vB.02.01-SR1.

[5] = Pharmacokinetics in Sprague-Dawley Rats; assay type: in vivo; conditions: for half-life: Sprague-Dawley, rat, plasma; for dose normalized exposure: oral, 10 mg/kg
Description: The pharmacokinetics of Compound 1 and Compound 2 was assessed in male and female Sprague-Dawley rats (225-300 g at 10 weeks).
Compound 2 (1 mg/kg) was administered intravenously (IV) to fasted rats (n=3) as a solution in purified water via a bolus injection into the jugular vein (1 mg/mL; 1 mL/kg). Compound 1 (10 mg/kg) was administered orally (PO), to fasted (for at least 12 hours) or non-fasted rats (n=2 or 3) as a solution in 0.5% methylcellulose unless otherwise noted via an oral gavage to the stomach (3.33 mg/mL; 3 mL/kg). Non-fasted animals were fasted for at least 12 hours and then were given food ad libitum for 1 hour prior to dosing. Fasted animals were dosed 1, 10, 30, 100 or 300 mg/kg Compound 1 as a solution in 0.5% methylcellulose via an oral gavage to the stomach (0.69 mg/mL, 10 mg/mL, 33.3 mg/mL or 100 mg/mL) (n=2 or 3 per dose group). In a gastrointestinal study, rats were anesthetized and Compound 1 was administered directly to the duodenum, jcjunum or ilcum at 1 mg/kg in 0.5% methylcellulose.
Capsules were also administered with Compound 2. Capsules were size 9 gelatin (Torpac, San Diego, Calif.).
(§4) Blood samples (approximately 300 μL total blood) were taken from each rat via the jugular vein cannula at pre-dose, and an initial time of 5 or 15 min and then various time points up to 24 hours post-dose (10-11 samples per animal). Samples were collected on wet ice in tubes containing potassium EDTA. After each blood draw, the cannula was flushed with an equivalent volume of heparinized saline (0.1 mL at 40 units/mL). Plasma samples, prepared by centrifugation of whole blood, were stored frozen (−80° C.) prior to analysis.

[6] = Pharmacokinetics in Male Beagle Dogs; assay type: in vivo; conditions: for bioavailability: po, 5 mg/kg, read-out: apparent oral bioavailability
Description: The pharmacokinetics of Compound 1 and Compound 2 was assessed in male Beagle dogs.
Dosing of male Beagle dogs (n=3) was performed. Compound 1 or Compound 2 was dosed intravenously at 2 mg/kg (fasted) and orally (fasted or non-fasted) at 5 mg/kg. In fasted animals, food was withheld a minimum of 12 hours prior to dosing and then returned 4 hours post-dose. Non-fasted animals were allowed to feed 1 hour prior to dosing ad libitum. Compound 2 capsules were given by oral gavage in the fasted state. Plasma samples were collected by Perry Scientific study personnel.
The capsules are noted in Table 25 below. Capsules were size 0 gelatin (Capsugel, Peapack, N.J.). Tablet formulations are noted in Example 24.
For the clinical drug product oral solution of active agent (1.67 mg/mL), sucralose (0.5% w/w) and cherry flavor (0.5% w/w) is added to the formulation as a sweetener and taste masking agent, respectively to a 0.5% methocel aqueous solution.
as §4, with “1 mL” for “300 μL”, “dog” for “rat via the jugular vein cannula”

[7] = male, Beagle, dog, plasma, oral 5 mg/kg, fasted state

metabolite observed in liver microsomes [1]: observed | metabolite observed in hepatocytes [2]: observed | metabolite observed in rat bile [3]: observed
Compound: Cc1noc(-c2ccc(-c3ccc(C4(C(=O)O)CC4)cc3)cc2)c1NC(=O)O[C@H](C)c1cccc(O)c1 [Compound M4]

metabolite observed in liver microsomes [1]: major metabolites | metabolite observed in hepatocytes [2]: major metabolites | metabolite observed in rat bile [3]: major metabolites
Compound: Cc1noc(-c2ccc(-c3ccc(C4(C(=O)ON[C@H](C=O)CCC(=O)O)CC4)cc3)cc2)c1NC(=O)O[C@H](C)c1ccccc1 [Compound M1]

solubility at 24 h [4]: ≥ 10 mg/mL | volume of distribution ([5]; IV 1 mg/kg): approximately two-fold total body water | half-life ([5]; female, IV 1 mg/kg, females): 3.2 h | half-life ([5]; male, IV 1 mg/kg, males): 3.8 h | dose normalized exposure [5]: 2.4 µg·h/mL | dose normalized exposure ([5]; in a gelatin capsule): 2.1 µg·h/mL | effect of food on absorption ([6]; dog, fasted vs fed): food has little effect on the absorption | decrease of AUC ([6]; dosed as a capsule form, fasted): 2.5 fold | bioavailability ([6]; male, Beagle, dog, plasma, dosed as a capsule form, fasted): 24% | bioavailability ([6]; male, Beagle, dog, plasma, human dose solution): 57% | bioavailability [6, 7]: 63% | bioavailability ([6]; male, Beagle, dog, plasma, oral 5 mg/kg, fed state): 60% | bioavailability ([6]; male, Beagle, dog, plasma, tablet formulation (first of two)): 100% | bioavailability ([6]; male, Beagle, dog, plasma, tablet formulation (second of two)): 52% | Vd ([6]; male, Beagle, dog, plasma, IV 2 mg/kg, read-out: estimated volume of distribution): 0.6 L/kg | clearance ([6]; male, Beagle, dog, plasma, IV 2 mg/kg, read-out: systemic clearance): 10.5 mL/min/kg | half-life ([6]; male, Beagle, dog, plasma, IV 2 mg/kg, read-out: terminal half-life (converted)): 3.9 h | Cmax [6, 7]: 5500 ng/mL
Compound: Cc1noc(-c2ccc(-c3ccc(C4(C(=O)[O-])CC4)cc3)cc2)c1NC(=O)O[C@H](C)c1ccccc1.[Na+] [Compound 2, 1-{4′-[3-methyl-4-((R)-1-phenyl-ethoxycarbonylamino)-isoxazol-5-yl]-biphenyl-4-yl}-cyclopropanecarboxylic acid, sodium salt]
